According to ChEMBL document CHEMBL5380831, “Azolylpyrimidinediols as Novel Structural Scaffolds of DNA-Groove Binders against Intractable Acinetobacter baumannii” (J Med Chem, 2023):
Converted amounts (≈) assume the structure as drawn.

Experiments:
Format in all cases: functional
Staphylococcus aureus [1] = assay: Antibacterial activity against methicillin-resistant Staphylococcus aureus assessed as bacterial growth inhibition incubated for 24 hrs by broth microdilution method
Escherichia coli [2] = assay: Antibacterial activity against Escherichia coli assessed as bacterial growth inhibition incubated for 24 hrs by broth microdilution method
Pseudomonas aeruginosa [3] = assay: Antibacterial activity against Pseudomonas aeruginosa ATCC 27853 assessed as bacterial growth inhibition incubated for 24 hrs by broth microdilution method
Klebsiella pneumoniae = assay: Antibacterial activity against Klebsiella pneumoniae assessed as bacterial growth inhibition incubated for 24 hrs by broth microdilution method
Staphylococcus aureus [4] = assay: Antibacterial activity against Staphylococcus aureus ATCC 25923 assessed as bacterial growth inhibition incubated for 24 hrs by broth microdilution method
Enterococcus faecalis = assay: Antibacterial activity against Enterococcus faecalis assessed as bacterial growth inhibition incubated for 24 hrs by broth microdilution method
Pseudomonas aeruginosa [5] = assay: Antibacterial activity against Pseudomonas aeruginosa assessed as bacterial growth inhibition incubated for 24 hrs by broth microdilution method
Staphylococcus aureus [6] = assay: Antibacterial activity against Staphylococcus aureus ATCC 29213 assessed as bacterial growth inhibition incubated for 24 hrs by broth microdilution method
Staphylococcus aureus [7] = assay: Antibacterial activity against Staphylococcus aureus assessed as bacterial growth inhibition incubated for 24 hrs by broth microdilution method
Escherichia coli [8] = assay: Antibacterial activity against Escherichia coli ATCC 25922 assessed as bacterial growth inhibition incubated for 24 hrs by broth microdilution method
Acinetobacter baumannii = assay: Antibacterial activity against Acinetobacter baumannii assessed as bacterial growth inhibition incubated for 24 hrs by broth microdilution method

| Compound | MIC (Staphylococcus aureus [1]) [µM] | MIC (Escherichia coli [2]) [µM] | MIC (Pseudomonas aeruginosa [3]) [µM] | MIC (Klebsiella pneumoniae) [µM] | MIC (Staphylococcus aureus [4]) [µM] | MIC (Enterococcus faecalis) [µM] | MIC (Pseudomonas aeruginosa [5]) [µM] | MIC (Staphylococcus aureus [6]) [µM] | MIC (Staphylococcus aureus [7]) [µM] | MIC (Escherichia coli [8]) [µM] | MIC (Acinetobacter baumannii) [µM] |
| --- | --- | --- | --- | --- | --- | --- | --- | --- | --- | --- | --- |
| O=[N+]([O-])c1cn(-c2ccnc(N(CCO)CCO)n2)cn1 | 870 (≈ 256 µg/mL) | 435 (≈ 128 µg/mL) | 435 (≈ 128 µg/mL) | 870 (≈ 256 µg/mL) | 435 (≈ 128 µg/mL) | 870 (≈ 256 µg/mL) | 435 (≈ 128 µg/mL) | 870 (≈ 256 µg/mL) | 435 (≈ 128 µg/mL) | 870 (≈ 256 µg/mL) | – |
| OCCN(CCO)c1nccc(-n2ccnc2)n1 | 1030 (≈ 256 µg/mL) | 1030 (≈ 256 µg/mL) | 1030 (≈ 256 µg/mL) | 1030 (≈ 256 µg/mL) | 1030 (≈ 256 µg/mL) | 1030 (≈ 256 µg/mL) | 1030 (≈ 256 µg/mL) | 1030 (≈ 256 µg/mL) | 1030 (≈ 256 µg/mL) | 1030 (≈ 256 µg/mL) | 1030 (≈ 256 µg/mL) |
| CCN(CCO)c1nccc(-n2cncn2)n1 | 1090 (≈ 256 µg/mL) | 1090 (≈ 256 µg/mL) | 1090 (≈ 256 µg/mL) | 1090 (≈ 256 µg/mL) | 1090 (≈ 256 µg/mL) | 1090 (≈ 256 µg/mL) | 547 (≈ 128 µg/mL) | 1090 (≈ 256 µg/mL) | 1090 (≈ 256 µg/mL) | 547 (≈ 128 µg/mL) | 1090 (≈ 256 µg/mL) |
| CCc1nccn1-c1nccc(N(CCO)CCO)n1 | 924 (≈ 256 µg/mL) | 924 (≈ 256 µg/mL) | 924 (≈ 256 µg/mL) | 1850 (≈ 512 µg/mL) | 924 (≈ 256 µg/mL) | 924 (≈ 256 µg/mL) | 924 (≈ 256 µg/mL) | 924 (≈ 256 µg/mL) | 924 (≈ 256 µg/mL) | 924 (≈ 256 µg/mL) | 924 (≈ 256 µg/mL) |
| OCCN(CCO)c1nccc(-n2cnnn2)n1 | 2040 (≈ 512 µg/mL) | 1020 (≈ 256 µg/mL) | 1020 (≈ 256 µg/mL) | 1020 (≈ 256 µg/mL) | 1020 (≈ 256 µg/mL) | 1020 (≈ 256 µg/mL) | – | 1020 (≈ 256 µg/mL) | 1020 (≈ 256 µg/mL) | 1020 (≈ 256 µg/mL) | 510 (≈ 128 µg/mL) |
| Cc1ncc([N+](=O)[O-])n1-c1nccc(N(CCO)CCO)n1 | 831 (≈ 256 µg/mL) | 415 (≈ 128 µg/mL) | 415 (≈ 128 µg/mL) | 415 (≈ 128 µg/mL) | 831 (≈ 256 µg/mL) | 831 (≈ 256 µg/mL) | 415 (≈ 128 µg/mL) | 831 (≈ 256 µg/mL) | 831 (≈ 256 µg/mL) | 1660 (≈ 512 µg/mL) | 415 (≈ 128 µg/mL) |
| CCc1nccn1-c1ccnc(N(CCO)CCO)n1 | 924 (≈ 256 µg/mL) | 924 (≈ 256 µg/mL) | 924 (≈ 256 µg/mL) | 1850 (≈ 512 µg/mL) | 924 (≈ 256 µg/mL) | 924 (≈ 256 µg/mL) | 924 (≈ 256 µg/mL) | 924 (≈ 256 µg/mL) | 924 (≈ 256 µg/mL) | 924 (≈ 256 µg/mL) | 924 (≈ 256 µg/mL) |
| CC(=O)Nc1ccc(S(=O)(=O)N2CCN(c3nccc(-n4cncn4)n3)CC2)cc1 | 598 (≈ 256 µg/mL) | 598 (≈ 256 µg/mL) | 598 (≈ 256 µg/mL) | 598 (≈ 256 µg/mL) | 299 (≈ 128 µg/mL) | 598 (≈ 256 µg/mL) | 598 (≈ 256 µg/mL) | 598 (≈ 256 µg/mL) | 299 (≈ 128 µg/mL) | 598 (≈ 256 µg/mL) | 598 (≈ 256 µg/mL) |
| O=C1c2cccc3c(N4CCN(c5nccc(-n6cncn6)n5)CC4)ccc(c23)C(=O)N1CCO | 545 (≈ 256 µg/mL) | 545 (≈ 256 µg/mL) | 545 (≈ 256 µg/mL) | 545 (≈ 256 µg/mL) | 68 (≈ 32 µg/mL) | 545 (≈ 256 µg/mL) | 545 (≈ 256 µg/mL) | 9 (≈ 4.23 µg/mL) | 545 (≈ 256 µg/mL) | 545 (≈ 256 µg/mL) | 272 (≈ 128 µg/mL) |
| CCCc1nccn1-c1ccnc(N(CCO)CCO)n1 | 879 (≈ 256 µg/mL) | 879 (≈ 256 µg/mL) | 879 (≈ 256 µg/mL) | 379 (≈ 110 µg/mL) | 879 (≈ 256 µg/mL) | 879 (≈ 256 µg/mL) | 879 (≈ 256 µg/mL) | 879 (≈ 256 µg/mL) | 879 (≈ 256 µg/mL) | 879 (≈ 256 µg/mL) | 879 (≈ 256 µg/mL) |
| Cc1cn(-c2ccnc(N(CCO)CCO)n2)cn1 | 973 (≈ 256 µg/mL) | 973 (≈ 256 µg/mL) | 973 (≈ 256 µg/mL) | 973 (≈ 256 µg/mL) | 973 (≈ 256 µg/mL) | 973 (≈ 256 µg/mL) | 973 (≈ 256 µg/mL) | 973 (≈ 256 µg/mL) | 973 (≈ 256 µg/mL) | 1950 (≈ 512 µg/mL) | 973 (≈ 256 µg/mL) |
| OCCN(CCO)c1ccnc(-n2ccnc2-c2ccccc2)n1 | 1580 (≈ 512 µg/mL) | 787 (≈ 256 µg/mL) | 787 (≈ 256 µg/mL) | 787 (≈ 256 µg/mL) | 394 (≈ 128 µg/mL) | 787 (≈ 256 µg/mL) | 197 (≈ 64.1 µg/mL) | 787 (≈ 256 µg/mL) | 787 (≈ 256 µg/mL) | 1580 (≈ 512 µg/mL) | 394 (≈ 128 µg/mL) |
| Cc1nc2ccccc2n1-c1ccnc(N(CCO)CCO)n1 | 204 (≈ 63.9 µg/mL) | 51 (≈ 16 µg/mL) | 102 (≈ 32 µg/mL) | 204 (≈ 63.9 µg/mL) | 102 (≈ 32 µg/mL) | 409 (≈ 128 µg/mL) | 26 (≈ 8.15 µg/mL) | 204 (≈ 63.9 µg/mL) | 102 (≈ 32 µg/mL) | 817 (≈ 256 µg/mL) | 204 (≈ 63.9 µg/mL) |
| OCCN(CCO)c1nccc(-n2cnc3cc(Br)ccc32)n1 | 339 (≈ 128 µg/mL) | 1360 (≈ 514 µg/mL) | 85 (≈ 32.1 µg/mL) | 170 (≈ 64.3 µg/mL) | 339 (≈ 128 µg/mL) | 679 (≈ 257 µg/mL) | 339 (≈ 128 µg/mL) | 85 (≈ 32.1 µg/mL) | 1360 (≈ 514 µg/mL) | 1360 (≈ 514 µg/mL) | 170 (≈ 64.3 µg/mL) |
| CCCc1nccn1-c1nccc(N(CCO)CCO)n1 | 879 (≈ 256 µg/mL) | 879 (≈ 256 µg/mL) | 879 (≈ 256 µg/mL) | 879 (≈ 256 µg/mL) | 879 (≈ 256 µg/mL) | 879 (≈ 256 µg/mL) | 879 (≈ 256 µg/mL) | 879 (≈ 256 µg/mL) | 879 (≈ 256 µg/mL) | 879 (≈ 256 µg/mL) | 879 (≈ 256 µg/mL) |
| Cc1nccn1-c1nccc(N(CCO)CCO)n1 | 973 (≈ 256 µg/mL) | 973 (≈ 256 µg/mL) | 973 (≈ 256 µg/mL) | 973 (≈ 256 µg/mL) | 973 (≈ 256 µg/mL) | 973 (≈ 256 µg/mL) | 973 (≈ 256 µg/mL) | 973 (≈ 256 µg/mL) | 973 (≈ 256 µg/mL) | 1950 (≈ 512 µg/mL) | 973 (≈ 256 µg/mL) |
| Cc1cn(-c2nccc(N(CCO)CCO)n2)cn1 | 973 (≈ 256 µg/mL) | 973 (≈ 256 µg/mL) | 973 (≈ 256 µg/mL) | 973 (≈ 256 µg/mL) | 1950 (≈ 512 µg/mL) | 1950 (≈ 512 µg/mL) | 973 (≈ 256 µg/mL) | 973 (≈ 256 µg/mL) | 973 (≈ 256 µg/mL) | 1950 (≈ 512 µg/mL) | 486 (≈ 128 µg/mL) |
| OCCN(CCO)c1nccc(-n2cnc3ccccc32)n1 | 856 (≈ 256 µg/mL) | 214 (≈ 64.1 µg/mL) | 107 (≈ 32 µg/mL) | 428 (≈ 128 µg/mL) | 107 (≈ 32 µg/mL) | 107 (≈ 32 µg/mL) | 214 (≈ 64.1 µg/mL) | 856 (≈ 256 µg/mL) | 214 (≈ 64.1 µg/mL) | 856 (≈ 256 µg/mL) | 856 (≈ 256 µg/mL) |
| Clc1ccc2c3ccccc3n(-c3nccc(-n4cncn4)n3)c2c1 | 740 (≈ 257 µg/mL) | 740 (≈ 257 µg/mL) | 740 (≈ 257 µg/mL) | 740 (≈ 257 µg/mL) | 740 (≈ 257 µg/mL) | 185 (≈ 64.2 µg/mL) | 3 (≈ 1.04 µg/mL) | 740 (≈ 257 µg/mL) | 740 (≈ 257 µg/mL) | 740 (≈ 257 µg/mL) | 740 (≈ 257 µg/mL) |
| CN(CCO)c1nccc(-n2cncn2)n1 | 1160 (≈ 256 µg/mL) | 1160 (≈ 256 µg/mL) | 1160 (≈ 256 µg/mL) | 1160 (≈ 256 µg/mL) | 1160 (≈ 256 µg/mL) | 582 (≈ 128 µg/mL) | 291 (≈ 64.1 µg/mL) | 1160 (≈ 256 µg/mL) | 1160 (≈ 256 µg/mL) | 582 (≈ 128 µg/mL) | 1360 (≈ 300 µg/mL) |
| OCCN(CCO)c1ccnc(-n2ccnc2)n1 | 1030 (≈ 256 µg/mL) | 1030 (≈ 256 µg/mL) | 1030 (≈ 256 µg/mL) | 1030 (≈ 256 µg/mL) | 1030 (≈ 256 µg/mL) | 1030 (≈ 256 µg/mL) | 514 (≈ 128 µg/mL) | 2060 (≈ 512 µg/mL) | 1030 (≈ 256 µg/mL) | 2060 (≈ 512 µg/mL) | 1030 (≈ 256 µg/mL) |
| Cc1nccn1-c1ccnc(N(CCO)CCO)n1 | 973 (≈ 256 µg/mL) | 973 (≈ 256 µg/mL) | 973 (≈ 256 µg/mL) | 973 (≈ 256 µg/mL) | 973 (≈ 256 µg/mL) | 973 (≈ 256 µg/mL) | 486 (≈ 128 µg/mL) | 1950 (≈ 512 µg/mL) | 973 (≈ 256 µg/mL) | 973 (≈ 256 µg/mL) | 973 (≈ 256 µg/mL) |
| Cc1ncc([N+](=O)[O-])n1-c1ccnc(N(CCO)CCO)n1 | 831 (≈ 256 µg/mL) | 415 (≈ 128 µg/mL) | 1660 (≈ 512 µg/mL) | 415 (≈ 128 µg/mL) | 831 (≈ 256 µg/mL) | 406 (≈ 125 µg/mL) | 415 (≈ 128 µg/mL) | – | 415 (≈ 128 µg/mL) | 831 (≈ 256 µg/mL) | 415 (≈ 128 µg/mL) |
